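Interpolation was linear, between the two tested concentrations surrounding the appropriate level; five concentrations were tested over 48 hours in 96-well plates. Here, GI50 denotes the concentration required for 50% inhibition of growth. TGI marks complete inhibition of growth.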
How the values were obtained:
Assay in all cases: inhibition of tumour cell growth, NCI panel, 48 h
EKVX NSCLC = tested on: EKVX NSCLC
BT-549 breast = tested on: BT-549 breast
SNB-19 CNS = tested on: SNB-19 CNS
HCT-15 colon = tested on: HCT-15 colon
LXFL 529 NSCLC = tested on: LXFL 529 NSCLC
HOP-18 NSCLC = tested on: HOP-18 NSCLC
KM20L2 colon = tested on: KM20L2 colon
DLD-1 colon = tested on: DLD-1 colon
DMS 114 small cell lung = tested on: DMS 114 small cell lung

Compound	GI50 (EKVX NSCLC)	TGI (EKVX NSCLC)	GI50 (BT-549 breast)	TGI (BT-549 breast)	GI50 (SNB-19 CNS)	TGI (SNB-19 CNS)	GI50 (HCT-15 colon)	TGI (HCT-15 colon)	TGI (LXFL 529 NSCLC)	TGI (HOP-18 NSCLC)	TGI (KM20L2 colon)	TGI (DLD-1 colon)	TGI (DMS 114 small cell lung)
CCCCCCCCCCCCCCCc1cc(O)ccc1N	> 50.6 µM	> 100 µM	0.305 µM	> 74.7 µM	> 100 µM	> 100 µM	45.8 µM	> 100 µM					
CC(c1ccc(Br)cc1)C(C(=O)O)C(=O)O (configuration not stated)		> 100 µM				> 100 µM		> 100 µM	> 100 µM	> 100 µM	> 100 µM	> 100 µM	> 100 µM
COc1ccc(-c2n[nH]nc2-c2csc3ccccc23)cc1OC	3.42 µM	> 100 µM	2.17 µM	12.5 µM	4.67 µM	45.1 µM	1.67 µM	14.7 µM					
COc1ccc2[nH]cc(-c3nc(-c4cn(C)c5ccncc45)cs3)c2c1	1.92 µM	3.92 µM	1.79 µM	3.4 µM	1.79 µM	3.57 µM	1.88 µM	3.92 µM					
COC(CCP(=O)(c1ccccc1)c1ccccc1)(C(=O)c1ccccc1)c1ccccc1 (configuration not stated)	4.37 µM	16.9 µM	4.55 µM	15.6 µM	5.75 µM	19.1 µM	3.19 µM	13.6 µM					
COc1cc(OC)c2c(=O)c(O)c(-c3ccc(OC)c(OC)c3)oc2c1		> 100 µM		> 100 µM		> 100 µM		> 100 µM					
O=c1c2ccc3cccc4c(=O)cc(c5ccccc15)-c2c34		> 100 µM				> 100 µM		> 100 µM	> 100 µM	> 100 µM	> 100 µM	> 100 µM	> 100 µM
C=C=C(C)[Si](C)(C)C						> 100 µM		> 100 µM					
O=C1OC(c2ccc(O)c(-c3ccccc3)c2)(c2ccc(O)c(-c3ccccc3)c2)c2c(Cl)c(Cl)c(Cl)c(Cl)c21		> 100 µM		> 100 µM		> 100 µM		> 100 µM					
O=C(Nc1c(-c2nc3ccccc3[nH]2)sc(=S)n1-c1ccccc1)c1ccccc1		> 100 µM				> 100 µM		> 100 µM	> 100 µM	> 100 µM		> 100 µM	> 100 µM
CCCCCCCCCCCCCCCC(=O)OCC(O)C1OC(=O)C(O)=C1O (configuration not stated)		> 100 µM				91.4 µM		> 100 µM					
Cc1nn(C(=O)c2ccc(Cl)cc2)c2c1C(c1ccc([N+](=O)[O-])cc1)SC(N)=N2 (configuration not stated)		> 10 µM		> 10 µM		> 10 µM		> 10 µM					
[Cu+2].[O-]c1ccc2ccccc2c1N=Nc1ccccc1.[O-]c1ccc2ccccc2c1N=Nc1ccccc1	> 100 µM	> 100 µM		> 100 µM		> 100 µM		> 100 µM					
COc1cccc(/C=N\Nc2ccc([N+](=O)[O-])cn2)c1O	3.59 µM	29.3 µM	4.47 µM	30 µM	3.13 µM	27.8 µM		39.7 µM					
COc1ccc(O)c(C(=O)c2ccc(C(=O)O[C@@H]3CCCNC[C@H]3NC(=O)c3ccncc3)cc2)c1F			0.212 µM	3.36 µM	1.9 µM	> 25 µM	0.918 µM	> 25 µM					
COc1ccc(C(O)CNC(=O)c2ccccc2)cc1 (configuration not stated)		> 100 µM		> 100 µM		> 100 µM		> 100 µM					
CCN(CC)CCOc1ccc(/C=C2\CC3C4CCC5=CC(=O)CC[C@]5(C)C4CC[C@]3(C)C2=O)cc1OC (some centres not stated)	4.88 µM	19.5 µM	5.02 µM	19.7 µM	4.03 µM	22.7 µM	2.82 µM	10.5 µM					
CCCN(CCC)c1ccc(CO)c(C)c1	28.4 µM	> 100 µM	47.6 µM	> 100 µM	> 100 µM	> 100 µM	51.9 µM	> 100 µM					
CC(=O)OC12c3ccccc3C1CCCCCC21OCCCO1 (configuration not stated)						> 100 µM		> 100 µM	> 100 µM		> 100 µM	> 100 µM	> 100 µM
N=C(c1ccccc1)N(O)C1CCCCC1		> 100 µM				> 100 µM			> 100 µM	> 100 µM	> 100 µM	> 100 µM	> 100 µM
CC(ONC(=O)c1cc(C(F)(F)F)cc(C(F)(F)F)c1)C(=O)Nc1ccc(Cl)cc1 (configuration not stated)	4.46 µM	> 63 µM	3.71 µM	16.7 µM	5.64 µM	> 100 µM	4.98 µM	20 µM					
O=C(COc1cccc(/C=C2\COc3ccccc3C2=O)c1)Nc1nccs1	4.11 µM	17.1 µM			9.93 µM	22.1 µM	3.11 µM	10.2 µM					
COC(OC)c1cccc2c1C1(O)CCC3(CC21)OCCCCO3 (configuration not stated)						> 100 µM		> 100 µM	> 100 µM	> 100 µM	> 100 µM	> 100 µM	> 100 µM
COc1ccc2c(c1)c(C1(c3cn(C)c4ccc(OC)cc34)C(=O)Nc3ccc(F)cc31)cn2C	3.05 µM	> 100 µM	10.6 µM	50.8 µM	12.2 µM	> 100 µM	5 µM	> 100 µM					
O=S1(=O)CCN(Cc2ccccn2)CC1		> 100 µM		> 100 µM		> 100 µM		> 100 µM					
CC(=O)/C=C/C1=C(c2cc3ccccc3s2)c2ccccc2CC1	39.5 µM	> 100 µM	33.6 µM	> 100 µM	50.7 µM	> 100 µM	21.8 µM	67.3 µM					
Cn1c(COC(=O)N2CCCCC2)nc2c(N3CCOCC3)nc(-c3ccccc3)nc21	1.22 µM	2.65 µM	1.01 µM	2.26 µM	1.51 µM	2.86 µM	0.212 µM	0.509 µM					
